Measurements from paper PMC3354555, “Partial Purification and Characterization of Rhodanese from Rainbow Trout (Oncorhynchus mykiss) Liver” (The Scientific World Journal, 2012).

System: T1, rainbow trout liver rhodanese (thiosulphate: cyanide sulphurtransferase, EC 2.8.1.1)
T1 construct: gene tst
Settings: 50 mM KCN, 25 mM citrate-phosphate-borate pH 10.5, 25°C; apparent; partially purified enzyme

O=S(O)(O)=S [Na2S2O3]
Km: 19.8 mM
